Tested on: T1, Epimedium flavonoid-glycosidase
T1 construct: native secreted enzyme purified from culture supernatant (DEAE-cellulose DE-52)
Test: TLC scanning of substrate and products, Lineweaver-Burk plot
Assay type: biochemical, Aspergillus sp. y848
Settings: 0.02 M acetate buffer pH 5.0, 40°C; icariin 12.5-50 mM

Compound `COc1ccc(-c2oc3c(CC=C(C)C)c(O[C@@H]4O[C@H](CO)[C@@H](O)[C@H](O)[C@H]4O)cc(O)c3c(=O)c2O[C@@H]2O[C@@H](C)[C@H](O)[C@@H](O)[C@H]2O)cc1` [icariin] has a Km of 15.6 mM.
